The subject of this experiment is NIH/Swiss female mice. Nature of the experiment: in vivo basal glucose lowering assay. The settings on record: Table 1, time in hours, subcutaneous injection, tail blood glucose at t=2 and 4 hours post dose. The procedure: Some compounds shown in Table 1 below were analyzed in an in vivo basal glucose lowering assay using the following procedure: A subcutaneous injection of either 200 μl phosphate-buffered saline (PBS) vehicle or test article was given immediately following baseline glucose (t=0) to NIH/Swiss female mice. Tail blood glucose samples were measured at t=2 and 4 hours post dose using a OneTouch® Ultra® (LifeScan, Inc., a Johnson & Johnson Company, Milpitas, Calif.). Body weight was measured daily. Significant test sample effects were identified by ANOVA (p<0.05), followed by Dunnett's post test using GraphPad Prism version 4.00 for Windows (GraphPad Software, San Diego Calif.).
For the compound `CC[C@H](C)[C@H](NC(=O)[C@H](Cc1ccccc1)NC(=O)[C@H](CC(C)C)NC(=O)[C@H](CCCNC(=N)N)NC(=O)[C@@H](NC(=O)[C@H](C)NC(=O)[C@H](CCC(=O)O)NC(=O)[C@H](CCC(=O)O)NC(=O)[C@H](CCC(=O)O)NC(=O)[C@H](CC(C)C)NC(=O)[C@H](CCC(N)=O)NC(=O)[C@H](CCCCN)NC(=O)[C@H](CO)NC(=O)[C@H](CC(C)C)NC(=O)[C@H](CC(=O)O)NC(=O)[C@H](CO)NC(=O)[C@@H](NC(=O)[C@H](Cc1ccccc1)NC(=O)[C@@H](NC(=O)CNC(=O)[C@@H]1CCCN1C(=O)CNC(=O)[C@@H](N)Cc1c[nH]cn1)[C@@H](C)O)[C@@H](C)O)C(C)C)C(=O)N[C@@H](CCC(=O)O)C(=O)N[C@@H](Cc1c[nH]c2ccccc12)C(=O)N[C@@H](CC(C)C)C(=O)N[C@@H](CCCCN)C(=O)N[C@@H](CCC(N)=O)C(=O)NCC(=O)NCC(=O)N1CCC[C@H]1C(=O)N[C@@H](CO)C(=O)N[C@@H](CCCCN)C(=O)N[C@@H](CCC(=O)O)C(=O)N[C@H](C(=O)N[C@H](C(=O)N[C@@H](CO)C(N)=O)[C@@H](C)CC)[C@@H](C)CC` [2B], the “In Vivo Glucose-Lowering Assay” value was “more than 4 hours”.

With `CC[C@H](C)[C@H](NC(=O)[C@H](Cc1ccccc1)NC(=O)[C@H](CC(C)C)NC(=O)[C@H](CCCNC(=N)N)NC(=O)[C@@H](NC(=O)[C@H](C)NC(=O)[C@H](CCC(=O)O)NC(=O)[C@H](CCC(=O)O)NC(=O)[C@H](CCC(=O)O)NC(=O)[C@H](CC(C)C)NC(=O)[C@H](CCC(N)=O)NC(=O)[C@H](CCCCN)NC(=O)[C@H](CO)NC(=O)[C@H](CC(C)C)NC(=O)[C@H](CC(=O)O)NC(=O)[C@H](CO)NC(=O)[C@@H](NC(=O)[C@H](Cc1ccccc1)NC(=O)[C@@H](NC(=O)CNC(=O)[C@@H]1CCCCN1C(=O)CNC(=O)[C@@H](N)Cc1c[nH]cn1)[C@@H](C)O)[C@@H](C)O)C(C)C)C(=O)N[C@@H](CCC(=O)O)C(=O)N[C@@H](Cc1c[nH]c2ccccc12)C(=O)N[C@@H](CC(C)C)C(=O)N[C@@H](CCCCN)C(=O)N[C@@H](CCC(N)=O)C(=O)NCC(=O)NCC(=O)N1CCC[C@H]1C(=O)N[C@@H](CO)C(=O)N[C@@H](CCCCN)C(=O)N[C@@H](CCC(=O)O)C(=O)N[C@H](C(=O)N[C@H](C(=O)N[C@@H](CO)C(N)=O)[C@@H](C)CC)[C@@H](C)CC` [2F], the “In Vivo Glucose-Lowering Assay” value is reported as “more than 4 hours”. Next, `CC[C@H](C)[C@H](NC(=O)[C@H](Cc1ccccc1)NC(=O)[C@H](CC(C)C)NC(=O)[C@H](CCCNC(=N)N)NC(=O)[C@@H](NC(=O)[C@H](C)NC(=O)[C@H](CCC(=O)O)NC(=O)[C@H](CCC(=O)O)NC(=O)[C@H](CCC(=O)O)NC(=O)[C@H](CC(C)C)NC(=O)[C@H](CCC(N)=O)NC(=O)[C@H](CCCCN)NC(=O)[C@H](CO)NC(=O)[C@H](CC(C)C)NC(=O)[C@H](CC(=O)O)NC(=O)[C@H](CO)NC(=O)[C@@H](NC(=O)[C@H](Cc1ccccc1)NC(=O)[C@@H](NC(=O)CNC(=O)[C@@H]1C[C@@H](O)CN1C(=O)CNC(=O)[C@@H](N)Cc1c[nH]cn1)[C@@H](C)O)[C@@H](C)O)C(C)C)C(=O)N[C@@H](CCC(=O)O)C(=O)N[C@@H](Cc1c[nH]c2ccccc12)C(=O)N[C@@H](CC(C)C)C(=O)N[C@@H](CCCCN)C(=O)N[C@@H](CCC(N)=O)C(=O)NCC(=O)NCC(=O)N1CCC[C@H]1C(=O)N[C@@H](CO)C(=O)N[C@@H](CCCCN)C(=O)N[C@@H](CCC(=O)O)C(=O)N[C@H](C(=O)N[C@H](C(=O)N[C@@H](CO)C(N)=O)[C@@H](C)CC)[C@@H](C)CC` [2I]: “more than 4 hours”.
